Test results published in publication PMC10675597, “Design, Synthesis, and Antisickling Investigation of a Thiazolidine Prodrug of TD-7 That Prolongs the Duration of Action of Antisickling Aromatic Aldehyde” (Pharmaceutics, 2023).

Columns and labels:
[1] = In-vitro stability in different pH buffers (aldehyde peak absorbance at 349 nm); assay type: physicochemical; details: for Stability (absorbance of aldehyde peak at 349 nm): 1 mM, 37 °C
Experimental: The stability of Pro-7 and the control TD-7 in different pH buffers (PBS buffer at pH 7.4, KCl·HCl buffer at pH 2.0, and Tris buffer at pH 8.0) was evaluated over time as previously reported. The ionic strength of all buffers was kept constant at 150 mM. A 200 mM stock solution of each compound was prepared using anhydrous DMSO. 1 mM solutions of each of the test compounds TD-7 and Pro-7 were prepared in duplicate for each of the three different pH buffers. […]
An in-vitro time-dependent (1–96 h) stability study of Pro-7 was conducted to inform the formulation of the prodrug. The study was conducted at three different pHs: 2.0, 7.4 and 8.0, which mimic stomach, blood and intestinal pH conditions, respectively. The presence of TD-7 or the rate of appearance of TD-7 upon dissociation of Pro-7 was monitored at 349 nm spectrophotometrically.

[2] = biological target: T1, Hb in human normal whole blood (Homo sapiens, UniProt P69905); assay: In-vitro time-dependent Hb modification (Hb adduct formation), cation-exchange HPLC; assay type: cell-based; details: 2 mM; for %Hb Modification (Hb Adduct): normal whole blood 30% hematocrit
T1 construct: normal whole blood (AA) was collected from adult donors; from tissue; host or cells: normal (AA) human whole blood from adult donors, 30% hematocrit
Experimental: Pro-7 and the control TD-7 were used to conduct time-dependent Hb modification (Hb adduct formation) studies using normal whole blood as previously reported. A 200 mM stock solution of each compound was made with DMSO. In a 96-well 1.2 mL polypropylene deep-well plate (Thermo Scientific, Hampshire, UK), 2.0 mM concentration of each compound was added to 600 μL of whole blood (30% hematocrit), which was then incubated at 37 °C for 24 h with shaking (at 140 rpm). A control sample was supplemented only with an equivalent volume of DMSO. At different time points (0–24 h), 50 μL aliquots of this mixture were withdrawn from each well using a multichannel pipette and added to respective tubes containing 50 μL of sodium cyanoborohydride (NaBH3CN) and sodium borohydride (NaBH4) mixture (1:1 v/v 50 mM stock) to terminate the Schiff-base reaction, fix the Schiff-base Hb adducts and reduce the free reactive aldehyde. After mixing, the tubes were stored immediately at −80 °C until ready for analysis using cation-exchange HPLC (Hitachi D-7000 Series, Hitachi Instruments, Inc. San Jose, CA, USA) for Hb-compound adduct formation. The observed Hb adducts in %Hb modification were plotted as a function of time (h).
(§1) Human normal whole blood was used to assess the degree of Hb modification and Hb oxygen affinity (P50 shift), while sickle blood was used to investigate RBC sickling inhibition. Pro-7 and the positive control TD-7 were incubated with normal whole blood suspensions. […] For the sickling inhibition study, Pro-7 and the positive control TD-7 were incubated with SS blood suspensions under hypoxic conditions (2.5% O2/97.5% N2), and aliquot blood samples were drawn at three time points (1, 3 and 6 h) and used for assessing RBC morphology. The results summarized in Table 1 and Figure 4A–C show time-dependent effects for all three pharmacodynamic activities. […] Even at the end of the 24-h experiment, Pro-7 activity was still increasing.

[3] = biological target: T1, Hb in human normal whole blood; assay: In-vitro time-dependent oxygen equilibrium study (P50 shift); assay type: cell-based; details: 2 mM; for %Hb O2 Affinity (P50 Shift): normal whole blood 30% hematocrit
Experimental: An oxygen equilibrium curve study was conducted in a time-dependent manner to determine the effect and duration of Pro-7 on Hb affinity for oxygen (P50 shift) following standard procedure. Pro-7, along with the controls TD-7 and DMSO were used for the studies with normal whole blood sample (30% hematocrit). Each compound was incubated with the blood at a final concentration of 2 mM, and aliquot samples were taken at 1, 3, 6, 12 and 24 h and further incubated in IL 237 tonometer (Instrumentation Laboratories, Inc., Lexington, MA, USA) for 10 min at 37 °C, and allowed to equilibrate at oxygen tensions 6, 20, and 40 mmHg. The samples were then aspirated into a Radiometer ABL 800 Automated Blood Gas Analyzer (Copenhagen, Denmark ) to determine the pH, partial pressure of CO2 (pCO2), partial pressure of oxygen (pO2), and Hb oxygen saturation values (SO2). The measured values of pO2 (mmHg) and SO2 at each pO2 value were then subjected to a non-linear regression analysis using the program Scientist (Micromath, Salt Lake City, UT, USA) to estimate P50 as a measure of Hb oxygen affinity as previously reported.
as §1

[4] = tested on: SS cells (homozygous sickle cell blood); assay: In-vitro time-dependent RBC sickling inhibition under hypoxia; assay type: cell-based, human; details: 2 mM; for inhibition at 2000 µM: Homo sapiens, SS cells 20% hematocrit, hypoxia (4% oxygen/96% nitrogen)
Experimental: Red blood cell sickling inhibition studies with Pro-7 and the control TD-7 was conducted using previously reported procedure. Blood suspensions from subjects with homozygous SCD (hematocrit 20%) were incubated under air in the absence or presence of test compounds at 37 °C for 1 h to ensure that binding has attained equilibrium. […] Aliquot samples were fixed with 2% glutaraldehyde solution without exposure to air, and then subjected to microscopic morphological analysis.
Human normal whole blood was used to assess the degree of Hb modification and Hb oxygen affinity (P50 shift), while sickle blood was used to investigate RBC sickling inhibition. […] The results summarized in Table 1 and Figure 4A–C show time-dependent effects for all three pharmacodynamic activities. […] Even at the end of the 24-h experiment, Pro-7 activity was still increasing.

[5] = parameters: method as in PMID 34657559, PMID 9490025, PMID 10376886, PMID 11154732; details: cited from earlier work

T1 sequence (P69905 2-142 limits assumed): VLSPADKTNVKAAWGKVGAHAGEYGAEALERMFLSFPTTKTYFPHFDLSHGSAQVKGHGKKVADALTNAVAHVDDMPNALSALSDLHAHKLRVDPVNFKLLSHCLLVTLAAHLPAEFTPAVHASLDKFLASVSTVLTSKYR
T1 sequence (P68871 2-147 partner limits assumed): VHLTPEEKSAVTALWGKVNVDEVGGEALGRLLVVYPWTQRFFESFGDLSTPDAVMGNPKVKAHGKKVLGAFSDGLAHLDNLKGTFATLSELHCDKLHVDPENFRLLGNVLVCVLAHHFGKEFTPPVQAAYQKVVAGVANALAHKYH

SMILES: COc1ccc(OCc2cccc(CO)n2)c(C=O)c1 [TD-7, 2-((6-(hydroxymethyl)pyridin-2-yl)methoxy)-5-methoxybenzaldehyde]
- Stability (absorbance of aldehyde peak at 349 nm) ([1]; pH 2.0, 0 hr): 3.23 ± 0.08
- stability in buffer (in words) ([1]; pH 2.0, 7.4 and 8.0, 96 h experiment): showed stability at all three pHs
- Stability (absorbance of aldehyde peak at 349 nm) ([1]; pH 2.0, 1 hr): 3.02 ± 0.00
- Stability (absorbance of aldehyde peak at 349 nm) ([1]; pH 2.0, 2 hr): 3.03 ± 0.04
- Stability (absorbance of aldehyde peak at 349 nm) ([1]; pH 2.0, 3 hr): 2.97 ± 0.04
- Stability (absorbance of aldehyde peak at 349 nm) ([1]; pH 2.0, 6 hr): 2.98 ± 0.01
- Stability (absorbance of aldehyde peak at 349 nm) ([1]; pH 2.0, 24 hr): 2.93 ± 0.01
- Stability (absorbance of aldehyde peak at 349 nm) ([1]; pH 7.4, 0 hr): 3.05 ± 0.10
- Stability (absorbance of aldehyde peak at 349 nm) ([1]; pH 7.4, 1 hr): 2.97 ± 0.01
- Stability (absorbance of aldehyde peak at 349 nm) ([1]; pH 7.4, 2 hr): 2.95 ± 0.03
- Stability (absorbance of aldehyde peak at 349 nm) ([1]; pH 7.4, 3 hr): 3.09 ± 0.06
- Stability (absorbance of aldehyde peak at 349 nm) ([1]; pH 7.4, 6 hr): 2.92 ± 0.02
- Stability (absorbance of aldehyde peak at 349 nm) ([1]; pH 7.4, 24 hr): 2.98 ± 0.07
- Stability (absorbance of aldehyde peak at 349 nm) ([1]; pH 7.4, 28 hr): 2.90 ± 0.04
- Stability (absorbance of aldehyde peak at 349 nm) ([1]; pH 7.4, 48 hr): 3.00 ± 0.05
- Stability (absorbance of aldehyde peak at 349 nm) ([1]; pH 7.4, 56 hr): 2.98 ± 0.08
- Stability (absorbance of aldehyde peak at 349 nm) ([1]; pH 7.4, 72 hr): 2.92 ± 0.05
- Stability (absorbance of aldehyde peak at 349 nm) ([1]; pH 7.4, 96 hr): 2.95 ± 0.03
- Stability (absorbance of aldehyde peak at 349 nm) ([1]; pH 8.0, 0 hr): 1.82 ± 0.05
- Stability (absorbance of aldehyde peak at 349 nm) ([1]; pH 8.0, 1 hr): 1.79 ± 0.00
- Stability (absorbance of aldehyde peak at 349 nm) ([1]; pH 8.0, 2 hr): 1.73 ± 0.01
- Stability (absorbance of aldehyde peak at 349 nm) ([1]; pH 8.0, 3 hr): 1.73 ± 0.01
- Stability (absorbance of aldehyde peak at 349 nm) ([1]; pH 8.0, 6 hr): 1.71 ± 0.01
- Stability (absorbance of aldehyde peak at 349 nm) ([1]; pH 8.0, 24 hr): 1.73 ± 0.02
- Stability (absorbance of aldehyde peak at 349 nm) ([1]; pH 8.0, 28 hr): 1.70 ± 0.02
- Stability (absorbance of aldehyde peak at 349 nm) ([1]; pH 8.0, 48 hr): 1.68 ± 0.03
- Stability (absorbance of aldehyde peak at 349 nm) ([1]; pH 8.0, 72 hr): 1.73 ± 0.03
- Stability (absorbance of aldehyde peak at 349 nm) ([1]; pH 8.0, 96 hr): 1.68 ± 0.04
- %Hb Modification (Hb Adduct) ([2]; 0 h): 0.00 ± 0.00%
- time of peak effect, Hb modification ([2]; normal whole blood): 12 h
- %Hb Modification (Hb Adduct) ([2]; 1 h): 25.20 ± 1.20%
- %Hb Modification (Hb Adduct) ([2]; 2 h): 23.40 ± 3.50%
- %Hb Modification (Hb Adduct) ([2]; 4 h): 41.70 ± 4.30%
- %Hb Modification (Hb Adduct) ([2]; 8 h): 47.30 ± 4.70%
- %Hb Modification (Hb Adduct) ([2]; 12 h): 48.30 ± 0.50%
- %Hb Modification (Hb Adduct) ([2]; 24 h): 43.30 ± 1.90%
- time of peak effect, Hb oxygen affinity ([3]; normal whole blood): peaked quickly at the first hour
- %Hb O2 Affinity (P50 Shift) ([3]; 1 h): 69.26%
- %Hb O2 Affinity (P50 Shift) ([3]; 3 h): 67.42%
- %Hb O2 Affinity (P50 Shift) ([3]; 6 h): 49.06%
- %Hb O2 Affinity (P50 Shift) ([3]; 12 h): 49.58%
- %Hb O2 Affinity (P50 Shift) ([3]; 24 h): 48.56%
- time of peak effect, RBC sickling inhibition ([4]; SS blood, hypoxia): peaked quickly at the first hour
- inhibition at 2000 µM ([4]; 1 h): 76.3%
- inhibition at 2000 µM ([4]; 3 h): 59.6%
- inhibition at 2000 µM ([4]; 6 h): 54%
- oral bioavailability (in words) [5]: low oral bioavailability
